Measured values reported in article PMC7794544, “Microbial production of multiple short-chain primary amines via retrobiosynthesis” (Nature Communications, 2021).

Experiments:
VlmD [1] = biological target: T1, VlmD (Streptomyces viridifaciens, UniProt Q84F32); assay: HPLC (OPA derivatization) of n-butylamine formed; LC-MS confirmation; type: biochemical; conditions: 1 mM substrate, 0.1 mM PLP, 150 ug/mL enzyme, 50 mM potassium phosphate pH 7.5, 37 °C, 2 h
T1 construct: N-terminal His6 tag, codon-optimised gene in pET-22b(+), E. coli BL21(DE3), Talon resin
T1 sequence (Q84F32 entry or part of it): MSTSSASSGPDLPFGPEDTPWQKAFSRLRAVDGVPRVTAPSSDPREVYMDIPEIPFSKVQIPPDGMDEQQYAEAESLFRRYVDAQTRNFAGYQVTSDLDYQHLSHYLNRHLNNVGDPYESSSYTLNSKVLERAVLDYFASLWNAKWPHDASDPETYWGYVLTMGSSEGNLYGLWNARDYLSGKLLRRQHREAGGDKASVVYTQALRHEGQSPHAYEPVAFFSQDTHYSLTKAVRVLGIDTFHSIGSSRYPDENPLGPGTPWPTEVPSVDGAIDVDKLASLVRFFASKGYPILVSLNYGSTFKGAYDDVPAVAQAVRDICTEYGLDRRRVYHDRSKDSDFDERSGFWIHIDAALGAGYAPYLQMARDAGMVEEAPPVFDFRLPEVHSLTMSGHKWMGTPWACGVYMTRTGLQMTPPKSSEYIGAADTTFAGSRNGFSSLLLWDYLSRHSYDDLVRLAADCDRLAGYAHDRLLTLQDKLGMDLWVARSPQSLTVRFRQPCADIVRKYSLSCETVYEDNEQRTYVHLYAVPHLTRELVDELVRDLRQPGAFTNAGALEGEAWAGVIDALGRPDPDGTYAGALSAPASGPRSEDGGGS

VlmD [2] = biological target: T1, VlmD; assay: HPLC (OPA derivatization) of iso-butylamine formed; LC-MS confirmation; type: biochemical; conditions: 1 mM substrate, 0.1 mM PLP, 150 ug/mL enzyme, 50 mM potassium phosphate pH 7.5, 37 °C, 2 h

Row | SMILES | HPLC (OPA derivatization) of n-butylamine formed; LC-MS confirmation (VlmD [1]) | HPLC (OPA derivatization) of iso-butylamine formed; LC-MS confirmation (VlmD [2])
1 | CCC[C@H](N)C(=O)O [L-norvaline] | VlmD showed relatively high activity toward L-2-aminobutyrate, L-norvaline, L-valine | –
2 | CC(C)[C@H](N)C(=O)O [L-valine] | – | VlmD consistently showed activities toward L-valine, L-leucine, and L-isoleucine as in the previous study
